# Measured values as given in patent US6699896B1, “Oxazole-aryl-carboxylic acids useful in the treatment of insulin resistance and hyperglycemia” (Wyeth, priority 1998, dated 2004).
# Marks after values point to notes of the source that are not given here.
# Key:
# [1] = system: diabetic (ob/ob) mice; experiment: Blood glucose lowering in diabetic (ob/ob) mice; assay type: in vivo, mouse; conditions: dose 100 mg/Kg, plasma glucose
# Source text: The procedures used and results obtained are briefly described below.
# The non-insulin dependent diabetic (NIDDM) syndrome can be typically characterizes by obesity, hyperglycemia, abnormal insulin secretion, hyperinsulinemia and insulin resistance.
# In each test procedure, mice [Male or female ob/ob (C57 B1/6J) and their lean litermates (ob/+ or +/+, Jackson Laboratories) ages 2 to 5 months (10 to 65 g)] of a similar age were randomized according to body weight into 4 groups of 10 mice. The mice were housed 5 per cage and are maintained on normal rodent chow with water ad libitum. Mice received test compound daily by gavage (suspended in 0.5 ml of 0.5% methyl cellulose); dissolved in the drinking water; or admixed in the diet. The dose of compounds given ranges from 2.5 to 200 mg/kg body weight/day. The dose is calculated based on the fed weekly body weight and is expressed as active moiety. […]
# On the morning of Day 4, 7 or 14 two drops of blood (approximately 50 ul) were collected into sodium fluoride containing tubes either from the tail vein or after decapitation. […] The plasma was isolated by centrifugation and the concentration of glucose is measured enzymatically on an Abbott V.P. Analyzer.
# For each mouse, the percentage change in plasma glucose on Day 4, 7 or 14 is calculated relative to the mean plasma glucose of the vehicle treated mice. […]
# [2] = biological target: T1, Human recombinant PTP1B (Homo sapiens, UniProt P18031); assay type: biochemical; conditions: for IC50: recombinant PTP1B, malachite green phosphate detection; for percent of phosphatase control (change) at single concentration: compound at 2.5 uM
# T1 construct: made in house
# T1 sequence (P18031 1-435): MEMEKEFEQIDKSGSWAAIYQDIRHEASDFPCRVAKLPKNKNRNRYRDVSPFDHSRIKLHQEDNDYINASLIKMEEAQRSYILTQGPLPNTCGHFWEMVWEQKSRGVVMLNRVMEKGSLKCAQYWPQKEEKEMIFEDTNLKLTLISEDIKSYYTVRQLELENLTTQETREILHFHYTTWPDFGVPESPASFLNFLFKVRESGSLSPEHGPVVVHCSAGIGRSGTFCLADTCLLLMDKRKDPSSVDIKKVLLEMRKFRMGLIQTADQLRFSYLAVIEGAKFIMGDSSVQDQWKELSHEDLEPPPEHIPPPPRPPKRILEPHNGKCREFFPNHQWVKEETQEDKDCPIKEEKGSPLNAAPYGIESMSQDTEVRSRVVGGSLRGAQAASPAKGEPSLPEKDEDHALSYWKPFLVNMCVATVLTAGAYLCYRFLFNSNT
# [3] = system: rat hepatic microsomal PTPases; conditions: PTPase activity, compound at 50 μM, rat liver microsomes
melting point,IC50 [2],percent of phosphatase control (change) at single concentration [2],% Change from Control [3],Compound,% Change Glucose from Vehicle [1]
,0.47 µM,,−35%,"Cc1oc(-c2ccc(C(F)(F)F)cc2)nc1-c1ccc(-c2cc(Br)c(OCC(=O)O)c(Br)c2)cc1 [Example 10, {3,5-Dibromo-4′-[5-methyl-2-(4-trifluoromethyl-phenyl)-oxazol-4-yl]-biphenyl-4-yloxy}-acetic Acid]",
70 to 72 °C,,−40 (2.5 uM) %,,"COC(=O)C(Cc1ccccc1)Oc1c(Br)cc(-c2ccc(-c3nc(-c4ccc(C(F)(F)F)cc4)oc3C)cc2)cc1Br (stereo not drawn) [Example 11, 2-{3,5-Dibromo-4′-[5-methyl-2-(4-trifluoromethyl-phenyl)-oxazol-4-yl]-biphenyl-4-yloxy}-3-phenyl-propionic Acid Methyl Ester]",
,0.13 µM,,−68%,"Cc1oc(-c2ccc(C(F)(F)F)cc2)nc1-c1ccc(-c2cc(Br)c(OC(Cc3ccccc3)C(=O)O)c(Br)c2)cc1 (stereo not drawn) [Example 12, 2-{3,5-Dibromo-4′-[5-methyl-2-(4-trifluoromethyl-phenyl)-oxazol-4-yl]-biphenyl-4-yloxy}-3-phenyl-propionic Acid]",
196 to 198 °C,1.15 µM,,,"Cc1oc(-c2ccc(C(F)(F)F)cc2)nc1-c1ccc(-c2ccc(Cn3oc(=O)[nH]c3=O)cc2)cc1 [Example 13, 2-{4′-[5-Methyl-2-(4-trifluoromethyl-phenyl)-oxazol-4-yl]-biphenyl-4-ylmethyl}-[1,2,4]oxadiazolidine-3,5-dione]",
216 to 218 °C,,−65 (2.5 uM) %,,"Cc1oc(-c2ccc(C(F)(F)F)cc2)nc1-c1ccc(-c2cccc(Cn3oc(=O)[nH]c3=O)c2)cc1 [Example 14, 2-{4′-[5-Methyl-2-(4-trifluoromethyl-phenyl)-oxazol-4-yl]-biphenyl-3-ylmethyl}-[1,2,4]oxadiazolidine-3,5-dione]",
226 to 227 °C,0.93 µM,,−47%,"Cc1oc(-c2ccc(C(F)(F)F)cc2)nc1-c1ccc(-c2ccc(OCc3nnn[nH]3)cc2)cc1 [Example 15, 5-{4′-[-Methyl-2-(4-trifluoromethyl-phenyl)-oxazol-4-yl]-biphenyl-4-yloxymethyl}-1H-tetrazole]",
,1.2 µM,,−20%,"Cc1oc(-c2ccc(C(F)(F)F)cc2)nc1-c1ccc2c(Br)c(OCC(=O)O)ccc2c1 [Example 16, {1-Bromo-6-[5-methyl-2-(4-trifluoromethyl-phenyl)-oxazol-4-yl]-naphthalen-2-yloxy}-acetic Acid]",
,0.98 µM,,−54%,"Cc1oc(-c2ccc(C(F)(F)F)cc2)nc1-c1ccc2c(Br)c(OC(Cc3ccccc3)C(=O)O)ccc2c1 (stereo not drawn) [Example 17, 2-{1-Bromo-6-[5-methyl-2-(4-trifluoromethyl-phenyl)-oxazol-4-yl]-naphthalen-2-yloxy}-3-phenyl-propionic Acid]",
,8.7 µM,,,Ammonium molybdate tetrahydrate [reference compound],

# Further lines, the compound ahead of its results:
Compound,melting point,IC50 [2],percent of phosphatase control (change) at single concentration [2],% Change from Control [3],% Change Glucose from Vehicle [1]
"CC1(COc2ccc(CC3SC(=O)NC3=O)cc2)CCCCC1 (stereo not drawn) [Ciglitazone, 5-(4-(1-methylcyclohexylmethoxy)benzyl)-2,4-dione, reference compound]",,,,,−43%
"COc1ccc(-c2ccc(-c3nc(-c4ccc(C(F)(F)F)cc4)oc3C)cc2)cc1 [Example 1, 4-(4′-Methoxy-biphenyl-4-yl)-5-methyl-2-(4-trifluoromethyl-phenyl)-oxazole]",167 to 168 °C,1.66 µM,,,
"COc1ccc(-c2cccc(-c3nc(-c4ccc(C(F)(F)F)cc4)oc3C)c2)cc1 [Example 2, 4-(4′-Methoxy-biphenyl-3-yl)-5-methyl-2-(4-trifluoromethyl-phenyl)-oxazole]",93 to 94 °C,,−47 (2.5 uM) %,,
"Cc1oc(-c2ccc(C(F)(F)F)cc2)nc1-c1ccc(-c2ccc(O)cc2)cc1 [Example 3, 4′-[5-Methyl-2-(4-trifluoromethyl-phenyl)-oxazol-4-yl]-biphenyl-4-ol]",,,−56 (2.5 uM) %,,
"Cc1oc(-c2ccc(C(F)(F)F)cc2)nc1-c1cccc(-c2ccc(O)cc2)c1 [Example 4, 3′-[5-Methyl-2-(4-trifluoromethyl-phenyl)-oxazol-4-yl]-biphenyl-4-ol]",,,,−28%,
"Cc1oc(-c2ccc(C(F)(F)F)cc2)nc1-c1ccc(-c2ccc(OCC(=O)O)cc2)cc1 [Example 5, {4′-[5-Methyl-2-(4-trifluoromethyl-phenyl)-oxazol-4-yl]-biphenyl-4-yloxy}-acetic Acid]",,0.85 µM,,,−40^a %
"Cc1oc(-c2ccc(C(F)(F)F)cc2)nc1-c1ccc(-c2ccc(OC(Cc3ccccc3)C(=O)O)cc2)cc1 (stereo not drawn) [Example 7, 2-{4′-[5-Methyl-2-(4-trifluoromethyl-phenyl)-oxazol-4-yl]-biphenyl-4-yloxy}-3-phenyl-propionic Acid]",,1.29 µM,,−74%,
"Cc1oc(-c2ccc(C(F)(F)F)cc2)nc1-c1cccc(-c2ccc(OC(Cc3ccccc3)C(=O)O)cc2)c1 (stereo not drawn) [Example 8, 2-{3′-[5-Methyl-2-(4-trifluoromethyl-phenyl)-oxazol-4-yl]-biphenyl-4-yloxy}-3-phenyl-propionic Acid]",,1.25 µM,,−78%,
"Cc1oc(-c2ccc(C(F)(F)F)cc2)nc1-c1ccc(-c2cc(Br)c(O)c(Br)c2)cc1 [Example 9, 3,5-Dibromo-4′-[5-methyl-2-(4-trifluoromethyl-phenyl)-oxazol-4-yl]-biphenyl-4-ol]",,0.65 µM,,−20%,
